Measured values from patent US12161722B2, “Bifunctional heterocyclic compound having BTK degradation function via ubiquitin proteasome pathway, and use thereof” (KOREA RESEARCH INSTITUTE OF CHEMICAL TECHNOLOGY, priority 2021, dated 2024).

Target: T1, WT BTK protein (Homo sapiens, UniProt Q06187)
T1 construct: measured for intracellular BTK protein levels by Western blotting; endogenous in cells; host or cells: TMD-8 or RAMOS cells
Test: BTK protein degradation assay (Western blotting), WT BTK
Format: cell-based
Conditions: concentration range accounting for 50% degradation of WT BTK protein, TMD-8 or RAMOS cells, 24 hours
Summary of the method: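 BTK levels were read by Western blotting (GAPDH and β-actin normalisers) in RIPA lysates of TMD-8 cells exposed to compounds for 24 h at 1×10^6 cells/mL. Results scored in ranges of the concentration producing 50% loss of WT BTK.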

T1 sequence (Q06187 whole entry): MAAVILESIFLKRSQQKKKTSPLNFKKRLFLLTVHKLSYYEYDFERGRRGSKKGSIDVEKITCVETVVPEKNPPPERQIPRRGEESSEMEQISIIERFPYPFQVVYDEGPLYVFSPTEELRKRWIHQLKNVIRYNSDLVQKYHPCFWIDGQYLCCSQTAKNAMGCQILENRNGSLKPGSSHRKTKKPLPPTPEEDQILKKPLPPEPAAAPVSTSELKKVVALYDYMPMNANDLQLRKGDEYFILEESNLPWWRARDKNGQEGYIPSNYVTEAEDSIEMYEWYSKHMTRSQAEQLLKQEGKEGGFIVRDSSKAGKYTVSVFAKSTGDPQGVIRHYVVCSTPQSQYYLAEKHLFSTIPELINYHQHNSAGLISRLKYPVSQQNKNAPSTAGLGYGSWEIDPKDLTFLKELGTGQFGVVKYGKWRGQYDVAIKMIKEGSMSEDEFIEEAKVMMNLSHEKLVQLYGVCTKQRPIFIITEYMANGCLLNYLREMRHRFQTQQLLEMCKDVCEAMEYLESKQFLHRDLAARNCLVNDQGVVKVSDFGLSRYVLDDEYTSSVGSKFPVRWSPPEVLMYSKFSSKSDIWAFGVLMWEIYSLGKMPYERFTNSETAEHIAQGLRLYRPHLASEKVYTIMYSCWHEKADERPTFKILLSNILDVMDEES

DC50 [nM] | Structure (SMILES)
0.1 to 10 | Cc1cccc(C)c1Nc1nn(C)c2nc(Nc3ccc4c(c3)CN(CC3CCN(CC(=O)Nc5ccc6c(c5)CN(C5CCC(=O)NC5=O)C6=O)CC3)CC4)ncc12 (stereo not shown) [Compound 91, 2-(4-((7-((3-((2,6-Dimethylphenyl)amino)-1-methyl-1H-pyrazolo[3,4-d]pyrimidin-6-yl)amino)-3,4-dihydroisoquinolin-2 (1H)-yl)methyl)piperidin-1-yl)-N-(2-(2,6-dioxopiperidin-3-yl)-1-oxoisoindolin-5-yl)acetamide]
0.1 to 10 | Cc1cccc(C)c1Nc1nn(C)c2nc(Nc3ccc4c(c3)CN(CC(=O)NC3CCN(c5ccc6c(c5)C(=O)N(C5CCC(=O)NC5=O)C6=O)CC3)CC4)ncc12 (stereo not shown) [Compound 97, 2-(7-((3-((2,6-dimethylphenyl)amino)-1-methyl-1H-pyrazolo[3,4-d]pyrimidin-6-yl)amino)-3,4-dihydroisoquinolin-2 (1H)-yl)-N-(1-(2-(2,6-dioxopiperidin-3-yl)-1,3-dioxoisoindolin-5-yl)piperidin-4-yl)acetamide]
0.1 to 10 | Cc1cccc(C)c1Nc1nn(C)c2nc(Nc3ccc(N4CCC(CN5CCN(c6ccc7c(c6)C(=O)N(C6CCC(=O)NC6=O)C7=O)CC5)CC4)nc3)ncc12 (stereo not shown) [Compound 135, 5-(4-((1-(5-((3-((2,6-Dimethylphenyl)amino)-1-methyl-1H-pyrazolo[3,4-d]pyrimidin-6-yl)amino)pyridin-2-yl)piperidin-4-yl)methyl)piperazin-1-yl)-2-(2,6-dioxopiperidin-3-yl)isoindoline-1,3-dione]
0.1 to 10 | Cc1cccc(C)c1Nc1nn(C)c2nc(Nc3ccc4c(c3)CN(CC3CCN(c5ccc6c(n5)CN(C5CCC(=O)NC5=O)C6=O)CC3)CC4)ncc12 (stereo not shown) [Compound 132, 3-(2-(4-((7-((3-((2,6-dimethylphenyl)amino)-1-methyl-1H-pyrazolo[3,4-d]pyrimidin-6-yl)amino)-3,4-dihydroisoquinolin-2 (1H)-yl)methyl)piperidin-1-yl)-5-oxo-5,7-dihydro-6H-pyrrolo[3,4-b]pyridin-6-yl)piperidin-2,6-one]
0.1 to 10 | Cc1cccc(C)c1Nc1nn(C)c2nc(Nc3ccc4c(c3)CN(C[C@@H]3CCN(c5ccc6c(c5)C(=O)N(C5CCC(=O)NC5=O)C6=O)C3)CC4)ncc12 (stereo partly drawn) [Compound 145, 5-((S)-3-((7-((3-((2,6-Dimethylphenyl)amino)-1-methyl-1H-pyrazolo[3,4-d]pyrimidin-6-yl)amino)-3,4-dihydroisoquinolin-2 (1H)-yl)methyl)pyrrolidin-1-yl)-2-(2,6-dioxopiperidin-3-yl)isoindoline-1,3-dione]
10 to 1000 | Cc1cccc(C)c1Nc1nn(C)c2nc(Nc3ccc4c(c3)CN(C(=O)[C@@H]3CCCN3C(=O)CN3CCN(c5ccc6c(c5)C(=O)N(C5CCC(=O)NC5=O)C6=O)CC3)CC4)ncc12 (stereo partly drawn) [Compound 33, 5-(4-(2-((S)-2-(7-((3-((2,6-Dimethylphenyl)amino)-1-methyl-1H-pyrazolo[3,4-d]pyrimidin-6-yl)amino)-1,2,3,4-tetrahydroisoquinoline-2-carbonyl)pyrrolidin-1-yl)-2-oxoethyl)piperazin-1-yl)-2-(2,6-dioxopiperidin-3-yl)isoindoline-1,3-dione]
0.1 to 10 | Cc1cccc(C)c1Nc1nn(C)c2nc(Nc3ccc(N4CCN(CC5CN(c6ccc7c(n6)CN(C6CCC(=O)NC6=O)C7=O)C5)CC4)cc3)ncc12 (stereo not shown) [Compound 187, 3-(2-(3-((4-(4-((3-((2,6-Dimethylphenyl)amino)-1-methyl-1H-pyrazolo[3,4-d]pyrimidin-6-yl)amino)phenyl)piperazin-1-yl)methyl)azetidin-1-yl)-5-oxo-5,7-dihydro-6H-pyrrolo[3,4-b]pyridin-6-yl)piperidin-2,6-one]
0.1 to 10 | Cc1cccc(C)c1Nc1nn(C)c2nc(Nc3ccc4c(c3)CN(CC3CCN(C5=CC(=O)N(C6CCC(=O)NC6=O)C5=O)CC3)CC4)ncc12 (stereo not shown) [Compound 201, 3-(3-(4-((7-((3-((2,6-dimethylphenyl)amino)-1-methyl-1H-pyrazolo[3,4-d]pyrimidin-6-yl)amino)-3,4-dihydroisoquinolin-2 (1H)-yl)methyl)piperidin-1-yl)-2,5-dioxo-2,5-dihydro-1H-pyrrol-1-yl)piperidin-2,6-one]
0.1 to 10 | Cc1cccc(C)c1Nc1nn(C)c2nc(Nc3ccc(N4CCN(CC5CN(c6ccc7c(c6)C(=O)N(C6CCC(=O)NC6=O)C7=O)C5)[C@@H](C)C4)cc3)ncc12 (stereo partly drawn) [Compound 185, 5-(3-(((S)-4-(4-((3-((2,6-Dimethylphenyl)amino)-1-methyl-1H-pyrazolo[3,4-d]pyrimidin-6-yl)amino)phenyl)-2-methylpiperazin-1-yl)methyl)azetidin-1-yl)-2-(2,6-dioxopiperidin-3-yl)isoindoline-1,3-dione]
10 to 1000 | Cc1cccc(C)c1Nc1nn(C)c2nc(Nc3ccc(C4CCN(C(=O)C5CN(c6ccc7c(c6)C(=O)N(C6CCC(=O)NC6=O)C7=O)C5)CC4)c(F)c3)ncc12 (stereo not shown) [Compound 229, 5-(3-(4-(4-((3-((2,6-dimethylphenyl)amino)-1-methyl-1H-pyrazolo[3,4-d]pyrimidin-6-yl)amino)-2-fluorophenyl)piperidine-1-carbonyl)azetidin-1-yl)-2-(2,6-dioxopiperidin-3-yl)isoindoline-1,3-dione]
0.1 to 10 | Cc1cccc(C)c1Nc1nn(C)c2nc(Nc3ccc4c(c3)CN(C(=S)C3CCN(c5ccc6c(c5)C(=O)N(C5CCC(=O)NC5=O)C6=O)CC3)CC4)ncc12 (stereo not shown) [Compound 232, 5-(4-(7-((3-((2,6-dimethylphenyl)amino)-1-methyl-1H-pyrazolo[3,4-d]pyrimidin-6-yl)amino)-1,2,3,4-tetrahydroisoquinoline-2-carbonothioyl)piperidin-1-yl)-2-(2,6-dioxopiperidin-3-yl)isoindoline-1,3-dione]
10 to 1000 | Cc1ccc(Nc2nn(C)c3nc(Nc4ccc5c(c4)CN(CC4CCN(c6ccc7c(c6)C(=O)N(C6CCC(=O)NC6=O)C7=O)CC4)CC5)ncc23)c(C)c1 (stereo not shown) [Compound 83, 5-(4-((7-((3-((2,4-Dimethylphenyl)amino)-1-methyl-1H-pyrazolo[3,4-d]pyrimidin-6-yl)amino)-3,4-dihydroisoquinolin-2 (1H)-yl)methyl)piperidin-1-yl)-2-(2,6-dioxopiperidin-3-yl)isoindoline-1,3-dione]
0.1 to 10 | Cc1cccc(C)c1Nc1nn(C)c2nc(Nc3ccc(C4CCN(C(=O)CC5CCN(c6ccc7c(c6)C(=O)N(C6CCC(=O)NC6=O)C7=O)CC5)CC4)cc3)ncc12 (stereo not shown) [Compound 222, 5-(4-(2-(4-(4-((3-((2,6-Dimethylphenyl)amino)-1-methyl-1H-pyrazolo[3,4-d]pyrimidin-6-yl)amino)phenyl)piperidin-1-yl)-2-oxoethyl)piperidin-1-yl)-2-(2,6-dioxopiperidin-3-yl)isoindoline-1,3-dione]
0.1 to 10 | Cc1cccc(C)c1Nc1nn(C)c2nc(Nc3ccc(C4CCN(C[C@@H]5CCN(c6ccc7c(c6)C(=O)N(C6CCC(=O)NC6=O)C7=O)C5)CC4)cc3)ncc12 (stereo partly drawn) [Compound 167, 5-((S)-3-((4-(4-((3-((2,6-Dimethylphenyl)amino)-1-methyl-1H-pyrazolo[3,4-d]pyrimidin-6-yl)amino)phenyl)piperidin-1-yl)methyl)pyrrolidin-1-yl)-2-(2,6-dioxopiperidin-3-yl)isoindoline-1,3-dione]
0.1 to 10 | Cc1cccc(C)c1Nc1nn(C)c2nc(Nc3ccc4c(c3)CN(C3CCN(CC5CCN(c6ccc7c(c6)C(=O)N(C6CCC(=O)NC6=O)C7=O)CC5)CC3)CC4)ncc12 (stereo not shown) [Compound 139, 5-(4-((4-(7-((3-((2,6-Dimethylphenyl)amino)-1-methyl-1H-pyrazolo[3,4-d]pyrimidin-6-yl)amino)-3,4-dihydroisoquinolin-2 (1H)-yl)piperidin-1-yl)methyl)piperidin-1-yl)-2-(2,6-dioxopiperidin-3-yl)isoindoline-1,3-dione]
0.1 to 10 | Cn1nc(Nc2c(Br)cccc2Br)c2cnc(Nc3ccc4c(c3)CN(CC3CCN(c5ccc6c(c5)C(=O)N(C5CCC(=O)NC5=O)C6=O)CC3)CC4)nc21 (stereo not shown) [Compound 217, 5-(4-((7-((3-((2,6-Dibromophenyl)amino)-1-methyl-1H-pyrazolo[3,4-d]pyrimidin-6-yl)amino)-3,4-dihydroisoquinolin-2 (1H)-yl)methyl)piperidin-1-yl)-2-(2,6-dioxopiperidin-3-yl)isoindoline-1,3-dione]
0.1 to 10 | Cc1cccc(C)c1Nc1nn(C)c2nc(Nc3ccc4c(c3)CN(CC3CCN(C(=O)Cc5cccc(NC6=CC(=O)N(C7CCC(=O)NC7=O)C6=O)c5)CC3)CC4)ncc12 (stereo not shown) [Compound 193, 3-(3-((3-(2-(4-((7-((3-((2,6-Dimethylphenyl)amino)-1-methyl-1H-pyrazolo[3,4-d]pyrimidin-6-yl)amino)-3,4-dihydroisoquinolin-2 (1H)-yl)methyl)piperidin-1-yl)-2-oxoethyl)phenyl)amino)-2,5-dioxo-2,5-dihydro-1H-pyrrol-1-yl)piperidin-2,6-one]
0.1 to 10 | Cc1cccc(C)c1Nc1nn(C)c2nc(Nc3ccc4c(c3)CN(CC3CCN(c5cc6c(cc5F)C(=O)N(C5CCC(=O)NC5=O)C6)CC3)CC4)ncc12 (stereo not shown) [Compound 220, 3-(5-(4-((7-((3-((2,6-Dimethylphenyl)amino)-1-methyl-1H-pyrazolo[3,4-d]pyrimidin-6-yl)amino)-3,4-dihydroisoquinolin-2 (1H)-yl)methyl)piperidin-1-yl)-6-fluoro-1-oxoisoindolin-2-yl)piperidin-2,6-one]

Structure (SMILES) | DC50 [nM]
Cc1cccc(C)c1Nc1nn(C)c2nc(Nc3ccc4c(c3)CN(CC3CCN(C(=O)CCc5cccc6c5CN(C5CCC(=O)NC5=O)C6=O)CC3)CC4)ncc12 (stereo not shown) [Compound 64, 3-(4-(3-(4-((7-((3-((2,6-Dimethylphenyl)amino)-1-methyl-1H-pyrazolo[3,4-d]pyrimidin-6-yl)amino)-3,4-dihydroisoquinolin-2 (1H)-yl)methyl)piperidin-1-yl)-3-oxopropyl)-1-oxoisoindolin-2-yl)piperidin-2,6-one] | 0.1 to 10
